Reference: patent US12533321B2, “Polypeptide formulations for oral delivery” (Bhami's Research Laboratory, Pvt. Ltd., priority 2022, dated 2026)
Values belong to the compound of their own block, whether it stands above or below them.

Columns and labels:
[1] = Pharmacokinetics of Octreotide in albumin crystal sugar truffle shell vs IV, plasma Octreotide by ELISA; format: in vivo, Wistar Rats; conditions: 0.1 mg
From the text: Rats in the oral treatment group was fasted overnight. […] The time of dosage of each animal was noted. […] Biosystems protocol.

[2] = Pharmacokinetics of PTH (1-34) in albumin crystal capsule (Vitamin E) vs IV, plasma PTH (1-34) by ELISA; format: in vivo, Minipigs (Yorkshire); conditions: 0.04 mg
From the text: The PTH (1-34) was processed to prepare albumin microparticles containing PTH according to the procedure mentioned under Example 4. The microparticle of albumin crystals containing PTH was then lyophilized after washing with cold isopropanol. […] The capsule was then closed.
(§1) Pigs in the oral treatment group was either fasted overnight or fed prior to the test sample administration. […] The time of dosage of each animal was noted. […] An antibody, anti-PTH (1-34) was pre-coated onto a 96-well plate. […] The intensity of the yellow color is proportional to the PTH (1-34) amount bound on the plate.

[3] = Pharmacokinetics of PTH (1-34) in albumin crystal sugar truffle shell vs IV, plasma PTH (1-34) by ELISA; format: in vivo, Minipigs (Yorkshire); conditions: 0.04 mg
From the text: The PTH (1-34) was processed to prepare albumin microparticles containing PTH according to the procedure mentioned under Example 4. The microparticle of albumin crystals containing PTH was then lyophilized after washing with cold isopropanol.
as §1

[4] = female, Yorkshire, minipig, plasma, iv
[5] = female, Yorkshire, minipig, plasma, iv, IV, read-out: AUC 0-inf_pred
[6] = female, Yorkshire, minipig, plasma, iv, IV, read-out: AUC 0-t
[7] = female, Yorkshire, minipig, plasma, iv, IV, read-out: AUC t-inf_obs
[8] = female, Yorkshire, minipig, plasma, iv, IV, read-out: AUC t-inf_pred
[9] = female, Yorkshire, minipig, plasma, iv, IV, read-out: MRT 0-inf_obs
[10] = female, Yorkshire, minipig, plasma, iv, IV, read-out: MRT 0-inf_pred
[11] = female, Yorkshire, minipig, plasma, iv, read-out: MRT 0-t
[12] = female, Yorkshire, minipig, plasma, iv, read-out: t½ (converted)

Compound: C[C@@H](O)[C@@H]1NC(=O)[C@H](CCCCN)NC(=O)[C@@H](Cc2c[nH]c3ccccc23)NC(=O)[C@H](Cc2ccccc2)NC(=O)[C@@H](NC(=O)[C@H](N)Cc2ccccc2)CSSC[C@@H](C(=O)N[C@H](CO)[C@@H](C)O)NC1=O (relative stereo) [Octreotide, L-cysteinamide, D-phenylalanyl-L-cysteinyl-L-phenylalanyl-D-tryptophyl-L-lysyl-L-threonyl-N-[2-hydroxy-1-(hydroxy-methyl)propyl]-, cyclic (2→7)-disulfide; [R-(R*,R*)]]
Cl_pred ([1]; IV): 6.036E−06 (mg)/(ng/ml)/h | Vss_obs ([1]; IV): 0.0001111 (mg)/(ng/ml) | Vss_pred ([1]; IV): 0.0001107 (mg)/(ng/ml) | Vz_obs ([1]; IV): 0.0001106 (mg)/(ng/ml) | Vz_pred ([1]; IV): 0.0001118 (mg)/(ng/ml) | C0 ([1]; male, Wistar, rat, in vivo, iv): 3830 ng/mL | Cmax ([1]; male, Wistar, rat, in vivo, iv): 5390 ng/mL | Tmax ([1]; male, Wistar, rat, in vivo, iv): 2 h | AUC(0-inf) ([1]; male, Wistar, rat, in vivo, iv, IV, read-out: AUC 0-inf_obs): 105 µg·h/mL | AUC(0-inf) ([1]; male, Wistar, rat, in vivo, iv, IV, read-out: AUC 0-inf_pred): 104 µg·h/mL | AUC(0-t) ([1]; male, Wistar, rat, in vivo, iv, IV, read-out: AUC 0-t): 74200 ng·h/mL | AUC(0-t) ([1]; male, Wistar, rat, in vivo, iv, IV, read-out: AUC t-inf_obs): 30500 ng·h/mL | AUC(0-t) ([1]; male, Wistar, rat, in vivo, iv, IV, read-out: AUC t-inf_pred): 29400 ng·h/mL | MRT inf ([1]; male, Wistar, rat, in vivo, iv, IV, read-out: MRT 0-inf_obs): 18.6 h | MRT inf ([1]; male, Wistar, rat, in vivo, iv, IV, read-out: MRT 0-inf_pred): 18.3 h | MRT last ([1]; male, Wistar, rat, in vivo, iv, read-out: MRT 0-t): 8.78 h | half-life ([1]; male, Wistar, rat, in vivo, iv, read-out: t½ (converted)): 770 min | level at 0 h ([1]; male, Wistar, rat, in vivo, 0 h, IV): 3830 ± 1290 ng/mL | level at 0.25 h ([1]; male, Wistar, rat, in vivo, 0.25 h, IV): 4390 ± 559 ng/mL | level at 0.5 h ([1]; male, Wistar, rat, in vivo, 0.5 h, IV): 3170 ± 924 ng/mL | level at 1 h ([1]; male, Wistar, rat, in vivo, 1 h, IV): 4130 ± 1170 ng/mL | level at 2 h ([1]; male, Wistar, rat, in vivo, 2 h, IV): 5390 ± 356 ng/mL | level at 4 h ([1]; male, Wistar, rat, in vivo, 4 h, IV): 5150 ± 704 ng/mL | level at 8 h ([1]; male, Wistar, rat, in vivo, 8 h, IV): 3160 ± 1390 ng/mL

AUMC 0-inf_obs ([2]; IV): 4903.835 pg/ml * h^2 | AUMC 0-inf_pred ([2]; IV): 4888.052 pg/ml * h^2 | AUMC 0-t/0-inf_obs ([2]; IV): 0.779 | AUMC 0-t/0-inf_pred ([2]; IV): 0.782 | AUMC t-inf_pred ([2]; IV): 1065.980 pg/ml * h^2 | AUMC_0-t ([2]; IV): 3822.072 pg/ml * h^2 | AUMC_t-inf obs ([2]; IV): 1081.763 pg/ml * h^2 | Cl_obs ([2]; IV): 0.000 (mg)/(pg/ml)/h | Cl_pred ([2]; IV): 0.000 (mg)/(pg/ml)/h | Clast_obs ([2]; IV): 15.430 pg/mL | Clast_pred ([2]; IV): 15.205 pg/mL | Lambda_z ([2]; IV): 0.233 h⁻¹ | Tlast ([2]; IV): 12.000 h | C0 [2, 4]: 1.43 ng/mL | Cmax [2, 4]: 2.9 ng/mL | Tmax [2, 4]: 9.6 min | AUC(0-inf) ([2]; female, Yorkshire, minipig, plasma, iv, IV, read-out: AUC 0-inf obs): 2.72 ng·h/mL | AUC(0-inf) [2, 5]: 2.72 ng·h/mL | AUC(0-t) [2, 6]: 2.65 ng·h/mL | AUC(0-t) [2, 7]: 0.0664 ng·h/mL | AUC(0-t) [2, 8]: 0.0654 ng·h/mL | MRT inf [2, 9]: 1.8 h | MRT inf [2, 10]: 1.8 h | MRT last [2, 11]: 1.44 h | half-life [2, 12]: 179 min | level at 0 h ([2]; female, Yorkshire, minipig, plasma, 0 h, IV, read-out: Mean PTH (1-34) levels): 1.43 ± 0.105 ng/mL | level at 0.08 h ([2]; female, Yorkshire, minipig, plasma, 0.08 h, IV, read-out: Mean PTH (1-34) levels): 2.82 ± 0.197 ng/mL | level at 0.16 h ([2]; female, Yorkshire, minipig, plasma, 0.16 h, IV, read-out: Mean PTH (1-34) levels): 2.9 ± 0.307 ng/mL | level at 0.5 h ([2]; female, Yorkshire, minipig, plasma, 0.5 h, IV, read-out: Mean PTH (1-34) levels): 1.62 ± 0.23 ng/mL | level at 1 h ([2]; female, Yorkshire, minipig, plasma, 1 h, IV, read-out: Mean PTH (1-34) levels): 0.421 ± 0.126 ng/mL | level at 2 h ([2]; female, Yorkshire, minipig, plasma, 2 h, IV, read-out: Mean PTH (1-34) levels): 0.165 ± 0.0395 ng/mL | level at 4 h ([2]; female, Yorkshire, minipig, plasma, 4 h, IV, read-out: Mean PTH (1-34) levels): 0.0908 ± 0.00755 ng/mL | level at 12 h ([2]; female, Yorkshire, minipig, plasma, 12 h, IV, read-out: Mean PTH (1-34) levels): 0.0154 ± 0.00157 ng/mL | Mean PTH (1-34) levels ([3]; 0 h, IV): 1429.01 ± 104.61 pg/mL | Mean PTH (1-34) levels ([3]; 0.08 h, IV): 2822.98 ± 196.91 pg/mL | Mean PTH (1-34) levels ([3]; 0.16 h, IV): 2898.29 ± 307.43 pg/mL | Mean PTH (1-34) levels ([3]; 0.5 h, IV): 1619.38 ± 229.76 pg/mL | Mean PTH (1-34) levels ([3]; 1 h, IV): 421.23 ± 126.34 pg/mL | Mean PTH (1-34) levels ([3]; 2 h, IV): 164.93 ± 39.5 pg/mL | Mean PTH (1-34) levels ([3]; 4 h, IV): 90.76 ± 7.55 pg/mL | Mean PTH (1-34) levels ([3]; 12 h, IV): 15.43 ± 1.57 pg/mL | AUMC 0-inf_obs ([3]; IV): 4903.835 pg/ml * h^2 | AUMC 0-inf_pred ([3]; IV): 4888.052 pg/ml * h^2 | AUMC 0-t ([3]; IV): 3822.072 pg/ml * h^2 | AUMC 0-t/0-inf_obs ([3]; IV): 0.779 | AUMC 0-t/0-inf_pred ([3]; IV): 0.782 | AUMC t-inf_obs ([3]; IV): 1081.763 pg/ml * h^2 | AUMC t-inf_pred ([3]; IV): 1065.980 pg/ml * h^2 | Cl_obs ([3]; IV): 0.000 (mg)/(pg/ml)/h | Cl_pred ([3]; IV): 0.000 (mg)/(pg/ml)/h | Clast_pred ([3]; IV): 15.205 pg/mL | Lambda_z ([3]; IV): 0.233 h⁻¹ | Tlast ([3]; IV): 12.000 h | C0 [3, 4]: 1.43 ng/mL | Cmax [3, 4]: 2.9 ng/mL | Tmax [3, 4]: 9.6 min | AUC(0-inf) ([3]; female, Yorkshire, minipig, plasma, iv, IV, read-out: AUC 0-inf_obs): 2.72 ng·h/mL | AUC(0-inf) [3, 5]: 2.72 ng·h/mL | AUC(0-t) [3, 6]: 2.65 ng·h/mL | AUC(0-t) [3, 7]: 0.0664 ng·h/mL | AUC(0-t) [3, 8]: 0.0654 ng·h/mL | MRT inf [3, 9]: 1.8 h | MRT inf [3, 10]: 1.8 h | level at 12 h ([3]; female, Yorkshire, minipig, plasma, iv, read-out: Clast_obs): 0.0154 ng/mL | MRT last [3, 11]: 1.44 h | half-life [3, 12]: 179 min
Compound: CC[C@H](C)[C@H](NC(=O)[C@H](CCC(=O)O)NC(=O)[C@H](CO)NC(=O)[C@@H](NC(=O)[C@@H](N)CO)C(C)C)C(=O)N[C@@H](CCC(N)=O)C(=O)N[C@@H](CC(C)C)C(=O)N[C@@H](CCSC)C(=O)N[C@@H](Cc1cnc[nH]1)C(=O)N[C@@H](CC(N)=O)C(=O)N[C@@H](CC(C)C)C(=O)NCC(=O)N[C@@H](CCCCN)C(=O)N[C@@H](Cc1cnc[nH]1)C(=O)N[C@@H](CC(C)C)C(=O)N[C@@H](CC(N)=O)C(=O)N[C@@H](CO)C(=O)N[C@@H](CCSC)C(=O)N[C@@H](CCC(=O)O)C(=O)N[C@@H](CCCN=C(N)N)C(=O)N[C@H](C(=O)N[C@@H](CCC(=O)O)C(=O)N[C@@H](Cc1c[nH]c2ccccc12)C(=O)N[C@@H](CC(C)C)C(=O)N[C@@H](CCCN=C(N)N)C(=O)N[C@@H](CCCCN)C(=O)N[C@@H](CCCCN)C(=O)N[C@@H](CC(C)C)C(=O)N[C@@H](CCC(N)=O)C(=O)N[C@@H](CC(=O)O)C(=O)N[C@H](C(=O)N[C@@H](Cc1cnc[nH]1)C(=O)N[C@@H](CC(N)=O)C(=O)N[C@@H](Cc1ccccc1)C(=O)O)C(C)C)C(C)C [PTH (1-34)]
